In publication PMC8623398, “Investigation of the Mechanisms of Cytotoxic Activity of 1,3-Disubstituted Thiourea Derivatives” (Pharmaceuticals, 2021):

What was measured:
Type in all cases: cell-based, human
SW620 cells [1] = assay: MTT assay, SW620; details: Homo sapiens, SW-620, 72 h, 50% growth inhibition
Experimental: As a first step in assessing their cytotoxic properties, all thioureas of the series were assayed against four human carcinoma cell lines, such as SW480 (primary colon cancer), SW620 (metastatic colon cancer), PC3 (metastatic prostate cancer), and K-562 (chronic myelogenous leukemia), as well as against the normal cell line HaCaT (immortalized human keratinocytes). Table 1 lists the compound concentrations that produced 50% of growth inhibition (IC50, μM), generated by the MTT method, in comparison with two commonly used chemotherapeutic agents, doxorubicin and cisplatin.
The human primary (SW480), metastatic (SW620) colon cancer, metastatic prostate cancer (PC3), chronic myelogenous leukemia (K-562), and human immortal keratinocyte (HaCaT) cell lines were purchased from the American Type Culture Collection (ATCC, Rockville, MD, USA). The cells were cultured in medium according to protocols (MEM for SW480 and SW620, RPMI 1640 for PC3 and K-562, and DMEM for HaCaT cells), supplemented with 10% FBS, penicillin (100 U/mL) and streptomycin (100 μg/mL), and cultured in a 37 °C/5% CO2 humidified incubator. The cells were cultured until appropriate confluence was achieved (80–90%). Next, they were harvested by treatment with 0.25% trypsin (Gibco Life Technologies, Waltham, MA, USA) excluding the non-adherent K-562 cell line and used for studies.
Cells without the studied compounds in medium were used as a control.
The cell viability was assessed by determination of MTT salt [3-(4,5-dimethylthiazol-2-yl)-2,5-diphenyltetrazoliumbromide] conversion by mitochondrial dehydrogenase. The MTT assay was performed as previously described. Alternatively, non-adherent leukemic cells were centrifuged in a microplate centrifuge (400× g, 5 min) during the collection stages. Experiments were repeated three times. Cell viability was presented as a percent of MTT reduction in the treated cells versus the control cells. The number of viable cells cultured without the studied compounds was assumed as 100%. A decreased relative MTT level indicated decreased cell viability. Thiourea compounds with the highest cytotoxic potential assessed by MTT determination (with the lowest IC50) were chosen for subsequent assessments of cytotoxicity mechanisms.

PC3 cells = assay: Trypan blue assay, PC3; details: PC3, 72 h; for reduction in live cell number: IC50 concentration, vs control; for Cell Number × 10^5 / Viability (%): compound at IC50 concentration
Experimental: (§1) In order to estimate the tumor and normal cell population density and their viability after treatment with compounds 1–3, 8, and 9, the trypan blue dye exclusion assay was performed. The live cell number of all cancerous cells incubated for 72 h with the studied thioureas was considerably lower in comparison with the controls (Table 2; Figure S1A). The highest reduction in cell amount was denoted for both colon SW480 and SW620 cells treated with the dichlorophenyl derivative 2, and it accounted for 93%. […] Similarly, a noticeable decline in both colon cancer cell populations was observed after treatment with the ortho-substituted compound 8. The number of live cells equaled 12% and 18%, respectively, as compared to controls. This thiourea also led to a reduction of PC3 cells of 38%, and leukemia K-562 cell lines of 27%. The number of SW620 and PC3 cells decreased by 72% and 63% in the presence of para-substituted compound 9. However, the reducing influence of this thiourea on the number of other cancerous cells was at the level of 21–32%. […] A significant effect on the other studied pathological cells was also noticed and accounted for 32–46%. Furthermore, the derivative 3 reduced the amount of live cancer cells by 32–59%, of which its decreasing impact on colon cancer cells was the greatest.
(§2) The live cell count was assessed by the trypan blue exclusion dye assay using an automated cell counter (CountessTM Invitrogen, Waltham, MA, USA). Untreated cells were used as the control.

K-562 cells = assay: Trypan blue assay, K-562; details: K-562, 72 h; for reduction in live cell number: IC50 concentration, vs control; for Cell Number × 10^5 / Viability (%): compound at IC50 concentration
Experimental: as §1, §2

HaCaT cells = assay: Trypan blue assay, HaCaT; details: 72 h, compound at IC50 concentration
Experimental: as §1, §2

SW620 cells [2] = assay: Annexin V-FITC/PI flow cytometry, SW620; details: SW620, 72 h, IC50 concentration
Experimental: To estimate the mechanism of anticancer activity of the selected compounds 1–3, 8, and 9, their effect on both early and late apoptosis was evaluated by flow cytometry analysis. […] Additionally, visible late apoptosis-inducing properties in these cell lines were denoted for the compound 9 (47% ± 3.0%), which was twice as strong towards the colon tumor cells mentioned above. The apoptotic properties of analogs 3 and 8 in K-562 cells varied from 30% ± 1.6% to 33% ± 2.3%. […] Whereas the apoptosis-generating influence of derivatives 2 and 3 on normal keratinocytes was higher (29% and 23%), their selectivity measured by MTT methods is favorable. The obtained results are in agreement with the IC50 values assigned to pathological cancer cell lines. The cells were cultured and harvested under the conditions described in Section 3.2.1. […] The effect of these compounds on the process of early and late apoptosis and necrosis was determined as described previously by dual staining with Annexin V:FITC and propidium iodide, according to the manufacturer’s protocol (Becton Dickinson). The cells that were Annexin V:FITC positive and PI negative were identified as early apoptotic, and Annexin V:FITC and PI positive as late apoptotic or necrotic.

IL-6 level, SW620 cells = assay: IL-6 level ELISA, SW620; details: SW620, 72 h; for reduction (inhibition) of IL-6 level: IC50 concentration, vs control; for IL-6 Concentration: compound at IC50 concentration, ELISA
Experimental: (§3) Because of the low secretion of IL-6 by leukemic cells compared to solid tumors, and in addition to the lack of IL-6 receptors in K-562 cells, studies of the effect of derivatives 1–3, 8, and 9 on the inhibition of IL-6 release were carried out on primary and secondary solid tumor cells (SW480, SW620, and PC3). A remarkable inhibition of the IL-6 level was denoted for both colon cancer cell lines. Compound 2, identified as the strongest inhibitor, reduced the interleukin level by 54% (in SW480 cells) and 63% (SW620 cells). A significant effect was also observed in these cells for its structural isomer 3 (39% and 23% of inhibition, respectively). Additionally, compound 3 considerably affected the IL-6 level produced by PC3 cells, and reduced it by 33%. Similarly, the treatment with derivative 1 was effective for both colon cancer cells. In its presence, IL-6 release decreased by 28–36%, as compared to controls. For monosubstituted derivatives 8 and 9, the observed IL-6-reducing influence was weaker. They both inhibited IL-6 secretion in SW480 and SW620 cell lines by 25–32%. In contrast to compound 9, thiourea 8 additionally diminished the cytokine level in PC3 cells by 26%.
(§4) The IL-6 concentration in all studied cancer cells and normal HaCaT cell lines was measured by an ELISA kit (Diaclon SAS Besancon CEDEX, Besançon, France). […] IL-6 in cell culture supernatant was measured using the enzyme-linked immunosorbent assay in accordance with the manufacturer’s protocol.

IL-6 level, PC3 cells = assay: IL-6 level ELISA, PC3; details: PC3, 72 h; for IL-6 Concentration: compound at IC50 concentration, ELISA; for reduction of IL-6 level: IC50 concentration, vs control
Experimental: as §3, §4

SMILES	IC50 (SW620 cells [1])	reduction in live cell number (PC3 cells)	Cell Number × 10^5 (PC3 cells)	Viability (%) (PC3 cells)	reduction in live cell number (K-562 cells)	Cell Number × 10^5 (K-562 cells)	Viability (%) (K-562 cells)	Cell Number × 10^5 (HaCaT cells)	cells in late apoptosis (SW620 cells [2])	reduction (inhibition) of IL-6 level (IL-6 level, SW620 cells)	IL-6 Concentration (IL-6 level, SW620 cells)	IL-6 Concentration (IL-6 level, PC3 cells)	reduction of IL-6 level (IL-6 level, PC3 cells)
Fc1ccc(NC(=S)Nc2cccc(C(F)(F)F)c2)cc1Cl [Compound 1, 1-(3-chloro-4-fluorophenyl)-3-[3-(trifluoromethyl)phenyl]thiourea]	9.4 ± 1.85 µM		2.3 ± 0.15 × 10^5	93 ± 1.50%		1.8 ± 0.24 × 10^5	93 ± 2.05%	6.5 ± 0.15 × 10^5	57% ± 1.2%		4.9 ± 0.01 pg/mL	9.6 ± 0.02 pg/mL	
FC(F)(F)c1ccc(NC(=S)Nc2cccc(C(F)(F)F)c2)cc1 [Compound 8, 1-[3-(trifluoromethyl)phenyl]-3-[4-(trifluoromethyl)phenyl]thiourea]	7.6 ± 1.75 µM	38%	2.1 ± 0.12 × 10^5	82 ± 1.10%	27%	3.2 ± 0.14 × 10^5	88 ± 1.10%	4.9 ± 0.28 × 10^5	≤ 26%		5.8 ± 0.06 pg/mL	8.1 ± 0.08 pg/mL	26%
FC(F)(F)c1cccc(NC(=S)Nc2ccc(Cl)cc2)c1 [Compound 9, 1-(4-chlorophenyl)-3-[3-(trifluoromethyl)phenyl]thiourea]	6.7 ± 1.74 µM	63%	1.2 ± 0.15 × 10^5	73 ± 1.99%		3.5 ± 0.22 × 10^5	90 ± 2.40%	8.6 ± 0.12 × 10^5	≤ 26%		5.2 ± 0.03 pg/mL	9.9 ± 0.03 pg/mL	

Compounds with a lower IC50 (SW620 cells [1]), results first:

IC50 (SW620 cells [1])	SMILES	reduction in live cell number (PC3 cells)	Cell Number × 10^5 (PC3 cells)	Viability (%) (PC3 cells)	reduction in live cell number (K-562 cells)	Cell Number × 10^5 (K-562 cells)	Viability (%) (K-562 cells)	Cell Number × 10^5 (HaCaT cells)	cells in late apoptosis (SW620 cells [2])	reduction (inhibition) of IL-6 level (IL-6 level, SW620 cells)	IL-6 Concentration (IL-6 level, SW620 cells)	IL-6 Concentration (IL-6 level, PC3 cells)	reduction of IL-6 level (IL-6 level, PC3 cells)
5.8 ± 0.76 µM	FC(F)(F)c1cccc(NC(S)=Nc2ccc(Cl)cc2Cl)c1 [Compound 3, 1-(2,4-dichlorophenyl)-3-[3-(trifluoromethyl)phenyl]thiourea]		1.8 ± 0.18 × 10^5	58 ± 1.20%		3.0 ± 0.27 × 10^5	85 ± 1.20%	7.8 ± 0.14 × 10^5	≤ 26%	23%	5.9 ± 0.03 pg/mL	7.3 ± 0.06 pg/mL	33%
1.5 ± 0.72 µM	FC(F)(F)c1cccc(NC(=S)Nc2ccc(Cl)c(Cl)c2)c1 [Compound 2, 1-(3,4-dichlorophenyl)-3-[3-(trifluoromethyl)phenyl]thiourea]	69%	2.4 ± 0.16 × 10^5	93 ± 1.40%	66%	1.0 ± 0.21 × 10^5	55 ± 1.03%	1.6 ± 0.31 × 10^5	99% ± 0.5%	63%	2.8 ± 0.03 pg/mL	9.1 ± 0.04 pg/mL	
